Patent US20190045783A1, “SUBSTITUTED IMIDAZOLYLCARBOXAMIDES AS PESTICIDES” (BAYER CROPSCIENCE AKTIENGESELLSCHAFT, priority 2016, published 2019)
Read-outs that look alike come from different tables or passages of the source.

What was measured:
[1] = test system: green peach aphid (Myzus persicae); test: Myzus persicae spray test (MYZUPE), comparison with prior art; format: in vivo; details: for Emax at 100 g/ha: Myzus persicae, read-out: % efficacy
Procedure: Myzus persicae—Spray Test (MYZUPE)
Emulsifier: alkylaryl polyglycol ether
(§1) After the desired period of time (dat), the efficacy in % is determined. 100% means that all the aphids have been killed; 0% means that no aphids have been killed.

[2] = test system: green peach aphid (Myzus persicae); test: Myzus persicae spray test (Chinese cabbage leaf discs); format: in vivo; details: for pest or weed control at 500 g/ha: Myzus persicae, foliar, read-out: efficacy in %
Procedure: Myzus persicae—Spray Test
To produce a suitable active ingredient formulation, 1 part by weight of active ingredient is dissolved with the stated parts by weight of solvent and made up with water containing an emulsifier concentration of 1000 ppm until the desired concentration is attained. To produce further test concentrations, the formulation is diluted with emulsifier-containing water.
After 5-6 days, the efficacy in % is determined. 100% means that all the aphids have been killed; 0% means that no aphids have been killed.

[3] = log P by HPLC on reversed-phase column (C18), EEC directive 79/831 Annex V.A8; format: physicochemical
[4] = test system: green peach aphids (Myzus persicae); test: Myzus persicae oral test (MYZUPE O), comparison with prior art; format: in vivo; details: for Emax at 0.8 ppm / Emax at 4 ppm: Myzus persicae, po, read-out: % efficacy
Procedure: Myzus persicae—Oral Test (MYZUPE O)
(§2) Solvent: 100 parts by weight of acetone
50 μl of the active compound preparation are transferred into microtitre plates and made up to a final volume of 200 μl with 150 μl of IPL41 insect medium (33%+15% sugar). Subsequently, the plates are sealed with parafilm, which a mixed population of green peach aphids (Myzus persicae) within a second microtitre plate is able to puncture and imbibe the solution through it.
as §1

[5] = test system: green peach aphids (Myzus persicae); test: Myzus persicae oral test; format: in vivo; details: for pest or weed control at 20 ppm: Myzus persicae, 120 h, read-out: efficacy in %
Procedure: as §2
Subsequently, the plates are sealed with parafilm, which a mixed population of green peach aphids (Myzus persicae) within a second microtitre plate is able to puncture and imbibe the solution through it.
After 5 days, the efficacy in % is determined. 100% means that all the aphids have been killed; 0% means that no aphids have been killed.

[6] = 120 h, MYZUPE, 100 g of ai/ha, 5 dat
[7] = application rate 500 g/ha, after 5-6 days, Chinese cabbage leaf discs, 100% = all aphids killed
[8] = reversed-phase HPLC column (C18), neutral range, pH 7.8, HPLC C18, 43° C., Table 1, read-out: logP [n]
[9] = 120 h, MYZUPE O, 0.8 ppm, 5 dat
[10] = application rate 20 ppm, after 5 days, oral, 100% = all aphids killed
[11] = neutral range, pH 7.8, HPLC C18, 43° C., Table 1

Molecule	efficacy in % [2, 7] [%]	logP [n] ([3]; pH 7.8)	efficacy in % [5, 10] [%]	further results
CN(C)C(=O)c1ncc(C(=O)N(C)c2cccnc2)n1C [I-1-033]	–	–	–	Emax at 100 g/ha [1, 6]: 90%; pest or weed control at 500 g/ha [2, 7]: 100%; chromatographic logP [3, 8]: 0.6; Emax at 0.8 ppm [4, 9]: 100%; Emax at 4 ppm ([4]; 120 h, MYZUPE O, 4 ppm, 5 dat): 100%; pest or weed control at 20 ppm [5, 10]: 100%
2-(Ethylcarbamothioyl)-N,1-dimethyl-N-(pyridin-3-yl)-1H-imidazole-5-carboxamide [I-1-056]	100	1.42	100	% efficacy ([1]; MYZUPE, 100 g of ai/ha, 5 dat): 100%; % efficacy ([4]; MYZUPE O, 0.8 ppm, 5 dat): 100%; % efficacy ([4]; MYZUPE O, 4 ppm, 5 dat): 100%
CCN(C(=O)c1cnc(C=NN(C)C(=O)OC)n1C)c1cccnc1 [I-1-045]	–	–	–	Emax at 100 g/ha [1, 6]: 90%; pest or weed control at 500 g/ha [2, 7]: 90%; chromatographic logP ([3]; neutral range, pH 7.8, HPLC C18, 43° C., Table 1, read-out: logP [n]): 1.28; Emax at 4 ppm ([4]; 120 h, MYZUPE O, 4 ppm, 5 dat): 100%; pest or weed control at 20 ppm [5, 10]: 100%
CN(C(=O)c1cnc(C(=O)Nc2ccccc2)n1C)c1cccnc1 [I-1-047]	–	–	–	Emax at 100 g/ha [1, 6]: 90%; pest or weed control at 500 g/ha [2, 7]: 100%; chromatographic logP [3, 8]: 1.82; Emax at 4 ppm ([4]; 120 h, MYZUPE O, 4 ppm, 5 dat): 100%; pest or weed control at 20 ppm [5, 10]: 100%
CCOC(=O)c1ncc(C(=O)N(C)c2cccnc2)n1C [I-1-025]	–	–	–	Emax at 100 g/ha [1]: 90%; pest or weed control at 500 g/ha [2]: 90%; chromatographic logP [3, 8]: 1.1; Emax at 0.8 ppm ([4]; 120 h): 90%; Emax at 4 ppm ([4]; 120 h): 100%; pest or weed control at 20 ppm ([5]; po): 100%
CN(C(=O)c1cnc(/C=N/OCc2cccnc2)n1C)c1cccnc1 [I-1-024]	–	–	–	chromatographic logP [3, 8]: 1.24; Emax at 4 ppm ([4]; 144 h, MYZUPE O, 4 ppm, 6 dat): 90%; pest or weed control at 20 ppm [5, 10]: 100%
CN(C(=O)c1cnc(C(=O)NS(C)(=O)=O)n1C)c1cccnc1 [I-1-070]	–	–	–	chromatographic logP [3, 8]: -0.2; Emax at 0.8 ppm [4, 9]: 100%; pest or weed control at 20 ppm [5, 10]: 90%
CCN(C(=O)c1cnc(C=NOC)n1C)c1cccnc1 [I-1-044]	–	–	–	Emax at 100 g/ha [1, 6]: 90%; pest or weed control at 500 g/ha [2, 7]: 100%; chromatographic logP [3, 8]: 1.29; Emax at 4 ppm ([4]; 120 h, MYZUPE O, 4 ppm, 5 dat): 100%
CN(C)C(=O)c1ncc(C(=O)N(c2cccnc2)C2CC2)n1C [I-1-083]	–	–	–	Emax at 100 g/ha [1, 6]: 90%; pest or weed control at 500 g/ha [2, 7]: 90%; chromatographic logP [3, 8]: 1.02; pest or weed control at 20 ppm [5, 10]: 90%
CN(C(=O)c1cnc(C(=O)NCc2ccccc2)n1C)c1cccnc1 [I-1-050]	–	–	–	Emax at 100 g/ha [1, 6]: 90%; pest or weed control at 500 g/ha [2, 7]: 90%; chromatographic logP [3, 8]: 1.75; Emax at 0.8 ppm [4, 9]: 90%; Emax at 4 ppm ([4]; 120 h, MYZUPE O, 4 ppm, 5 dat): 90%; pest or weed control at 20 ppm [5, 10]: 100%
CC(C)NC(=O)c1ncc(C(=O)N(C)c2cccnc2)n1C [I-1-032]	100	1.26	100	–
CN(C(=O)c1cnc(C(=O)N2CCCC2)n1C)c1cccnc1 [I-1-054, N,1-Dimethyl-N-(pyridin-3-yl)-2-(pyrrolidin-1-ylcarbonyl)-1H-imidazole-5-carboxamide]	–	–	–	pest or weed control at 500 g/ha [2, 7]: 100%; chromatographic logP [3, 8]: 1.02; pest or weed control at 20 ppm [5, 10]: 100%
CCN(C(=O)c1cnc(C2OCC(C)(C)CO2)n1C)c1cccnc1 [I-1-040]	90	1.61	100	–
CC(C)CNC(=O)c1ncc(C(=O)N(C)c2cccnc2)n1C [I-1-065]	100	1.57	100	–
CCNC(=O)c1ncc(C(=O)N(CC)c2cccnc2)n1C [I-1-066]	100	1.24	100	–
CN(C(=O)c1cnc(C2OCCO2)n1C)c1cccnc1 [I-1-002]	90	0.73	100	–
COCCOC(=O)N/N=C/c1ncc(C(=O)N(C)c2cccnc2)n1C [I-1-049]	90	1.26	100	–
CCN(C(=O)c1cnc(/C=N/OC(C)C)n1C)c1cccnc1 [I-1-041]	90	1.81	100	–
CCN(C(=O)c1cnc(C(=O)N(C)C)n1C)c1cccnc1 [I-1-072]	100	–	100	logP [n] [3, 11]: 0.88
C#CCO/N=C/c1ncc(C(=O)N(C)c2cccnc2)n1C [I-1-035]	100	1.83	100	–

Molecule	efficacy in % [2, 7] [%]	logP [n] ([3]; pH 7.8)	efficacy in % [5, 10] [%]	further results
CN(C(=O)c1cnc(C(=O)NC2CC2)n1C)c1cccnc1 [I-1-062]	100	1.06	100	–
CCN(C)C(=O)c1ncc(C(=O)N(CC)c2cccnc2)n1C [I-1-068]	100	1.12	90	–
CC(=O)c1ncc(C(=O)N(C)c2cccnc2)n1C [I-1-085]	90	–	100	logP [n] [3, 11]: 0.87
CN(C(=O)c1cnc(C(=O)N(C)S(C)(=O)=O)n1C)c1cccnc1 [I-1-081]	90	1.11	100	–
CCN(CC)C(=O)c1ncc(C(=O)N(C)c2cccnc2)n1C [I-1-058]	100	–	100	logP [n] [3, 11]: 1.11
COCC1COC(c2ncc(C(=O)N(C)c3cccnc3)n2C)O1 (centres unmarked) [I-1-009]	90	0.95	100	–
CCO/N=C/c1ncc(C(=O)N(C)c2cccnc2)n1C [I-1-004]	90	1.41	100	–
CCn1c(C(=O)N(C)c2cccnc2)cnc1C(=O)N(C)C [I-1-074]	–	–	–	Emax at 100 g/ha [1, 6]: 90%; pest or weed control at 500 g/ha [2, 7]: 100%; chromatographic logP [3, 8]: 0.86; Emax at 0.8 ppm [4, 9]: 100%; Emax at 4 ppm ([4]; 120 h, MYZUPE O, 4 ppm, 5 dat): 100%; pest or weed control at 20 ppm [5, 10]: 90%
CN(C(=O)c1cnc(/C=N/OCc2ccccn2)n1C)c1cccnc1 [I-1-013]	100	1.26	100	–
CCNC(=S)c1ncc(C(=O)N(C)c2cccnc2)n1C [I-1-057]	90	1.64	100	log P[a] ([3]; pH 2.7): 1.21; log P[n] ([3]; pH 7.8): 1.42
CCCCN(/N=C/c1ncc(C(=O)N(C)c2cccnc2)n1C)C(=O)OCC [I-1-029]	90	2.06	100	–
CN(C(=O)c1cnc(C2OCC3(CC3)CO2)n1C)c1cccnc1 [I-1-015]	90	1.29	100	–
CCCO/N=C/c1ncc(C(=O)N(C)c2cccnc2)n1C [I-1-023]	100	1.74	100	–
CN(C(=O)c1cnc(C(=O)N2CCOCC2)n1C)c1cccnc1 [I-1-059]	–	–	–	Emax at 100 g/ha [1, 6]: 100%; pest or weed control at 500 g/ha [2, 7]: 100%; chromatographic logP [3, 8]: 0.73; Emax at 4 ppm ([4]; 120 h, MYZUPE O, 4 ppm, 5 dat): 100%; pest or weed control at 20 ppm [5, 10]: 100%
CC(C)O/N=C/c1ncc(C(=O)N(C)c2cccnc2)n1C [I-1-005]	100	1.7	100	–
CCNC(=O)c1ncc(C(=O)N(C)c2cccnc2)n1C [I-1-046, N^2-Ethyl-N^5,1-dimethyl-N^5-(pyridin-3-yl)-1H-imidazole-2,5-dicarboxamide]	–	–	–	pest or weed control at 500 g/ha [2, 7]: 100%; chromatographic logP ([3]; reversed-phase HPLC column (C18), acidic range, pH 2.7, HPLC C18, 43° C., preparation examples, read-out: log P[a]): 0.8; chromatographic logP ([3]; reversed-phase HPLC column (C18), neutral range, pH 7.8, HPLC C18, 43° C., preparation examples, read-out: log P[n]): 0.97; pest or weed control at 20 ppm [5, 10]: 100%
CCOC(=O)N(C)/N=C/c1ncc(C(=O)N(C)c2cccnc2)n1C [I-1-019]	90	1.33	100	–
CN(C(=O)c1cnc(C(=O)N2CCC2)n1C)c1cccnc1 [I-1-071]	90	0.89	100	–
CCCO/N=C/c1ncc(C(=O)N(CC)c2cccnc2)n1C [I-1-043]	90	1.85	100	–
CCOC(=O)CNC(=O)c1ncc(C(=O)N(C)c2cccnc2)n1C [I-1-075]	90	1.22	100	–
